Measured values as given in patent publication US4806642A, “Purine derivatives” (Warner-Lambert Company, priority 1987, dated 1989).

What was measured:
T-cells = test: selective cytotoxicity for T-cells in the presence of 2'-deoxyguanosine (standard test, Science, 214, 1137, 1981); assay type: cell-based; details: in the presence of 10 micromoles of 2'-deoxyguanosine
From the text: (§1) The same compounds also were found by a standard test (Science, 214, 1137, 1981) to be selectively cytotoxic for T-cells in the presence of 2'-deoxyguanosine at a similar concentration range. For example, 2,8-diamino-9-[(2-hydroxyethoxy)methyl)]-9H-purine-6-ol is selectively cytotoxic to T-cell at a concentration of about 30 micromoles in the presence of 10 micromoles of 2'-deoxyguanosine. Similarly, 2-[(2,8-diamino-6-hydroxy-9H-purin-9-yl)methoxy]-1,3-propanediol is selectively cytotoxic to T-cell at a concentration of about 7 micromoles in the presence of 10 micromoles of 2'-deoxyguanosine. Both compounds were nontoxic to B-cell in the presence of the same amount of 2'-deoxyguanosine. Since T-cells play a central role in immune response, use of the compounds of the invention is contemplated for the immunoregulation of autoimmune diseases such as rheumatoid arthritis, systemic lupus erythematosus, inflammatory bowel disease, cancer, and viral diseases, transplantation, juvenile diabetes, myasthenia gravis, and multiple sclerosis. The present invention thus includes compositions containing a compound of formula 1 in treating disease such as autoimmune disease characterized by abnormal immune response in warmblooded animals. […]

B-cell = test: toxicity to B-cell in the presence of 2'-deoxyguanosine; assay type: cell-based; details: in the presence of the same amount (10 micromoles) of 2'-deoxyguanosine
From the text: as §1

SMILES | concentration at which selectively cytotoxic to T-cell (T-cells) | toxicity to B-cell (B-cell)
Nc1nc2c(nc(N)n2COCCO)c(=O)[nH]1 [2,8-Diamino-9-[(2-hydroxyethoxy)methyl)]-9H-purin-6-ol] | about 30 micromoles | nontoxic
Nc1nc(O)c2nc(N)n(COC(CO)CO)c2n1 [2-[(2,8-Diamino-6-hydroxy-9H-purin-9-yl)methoxy]-1,3-propanediol] | about 7 micromoles | nontoxic
